For orientation: IC50 means the midpoint of a concentration-inhibition curve.

Where two headings read alike, the source gives them in different places.

These results are taken from publication PMC10685318, “Trans-cyclosulfamidate mannose-configured cyclitol allows isoform-dependent inhibition of GH47 α-D-mannosidases through a bump–hole strategy” (Chemical Science, 2023).

In the assay the target is T1, MAN2C1 (Homo sapiens, UniProt Q9NTJ4).
T1 construct: expressed in transfected cells
T1 sequence (Q9NTJ4 1-1040): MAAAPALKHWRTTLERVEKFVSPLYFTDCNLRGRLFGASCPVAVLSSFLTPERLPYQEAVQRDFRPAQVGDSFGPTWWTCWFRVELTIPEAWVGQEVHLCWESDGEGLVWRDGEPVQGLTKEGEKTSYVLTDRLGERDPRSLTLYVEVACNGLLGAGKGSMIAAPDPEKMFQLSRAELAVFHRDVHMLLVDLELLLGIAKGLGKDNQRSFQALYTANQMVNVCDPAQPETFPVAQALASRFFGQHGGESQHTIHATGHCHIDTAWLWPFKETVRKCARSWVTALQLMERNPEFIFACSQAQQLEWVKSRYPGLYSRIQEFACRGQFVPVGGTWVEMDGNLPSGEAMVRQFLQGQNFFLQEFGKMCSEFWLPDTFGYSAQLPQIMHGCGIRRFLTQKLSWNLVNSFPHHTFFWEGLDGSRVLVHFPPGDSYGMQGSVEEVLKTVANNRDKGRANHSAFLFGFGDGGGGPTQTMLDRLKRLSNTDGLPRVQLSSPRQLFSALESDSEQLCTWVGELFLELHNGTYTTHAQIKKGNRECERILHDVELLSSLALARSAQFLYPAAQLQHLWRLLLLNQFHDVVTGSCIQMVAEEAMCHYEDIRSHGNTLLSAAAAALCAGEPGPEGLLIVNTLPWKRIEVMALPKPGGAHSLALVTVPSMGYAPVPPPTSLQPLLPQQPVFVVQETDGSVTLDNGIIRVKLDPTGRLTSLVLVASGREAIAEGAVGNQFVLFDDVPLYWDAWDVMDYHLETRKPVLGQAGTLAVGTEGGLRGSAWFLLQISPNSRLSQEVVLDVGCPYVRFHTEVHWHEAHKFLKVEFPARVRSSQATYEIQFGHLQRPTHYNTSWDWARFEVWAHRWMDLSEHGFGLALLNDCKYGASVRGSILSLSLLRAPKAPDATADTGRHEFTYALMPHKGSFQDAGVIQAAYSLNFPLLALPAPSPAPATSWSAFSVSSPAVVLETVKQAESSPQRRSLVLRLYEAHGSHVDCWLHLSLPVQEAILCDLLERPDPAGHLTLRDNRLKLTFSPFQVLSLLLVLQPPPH
The experiment in a line: 4-MU-α-man activity assay in overexpressed cell lysates. Type of assay: biochemical. The text has this: Finally, selectivity versus a panel of related exo-mannosidases was investigated. We first tested inhibition against all five human GH38 retaining α-mannosidases in overexpressed cell lysates using 4-methylumbelliferyl-α-mannoside (4-MU-α-man): Golgi mannosidase II and IIx (MAN2A1 and MAN2A2), cytosolic MAN2C1 and lysosomal MAN2B1 and MAN2B2. This α-mannosidase family follows a different conformational itinerary than GH47: ^0S2 → B2,5 → ^1S5.[35] […] Of note, the presence of cobalt has been associated with conformational changes in the active site of some GH38 α-mannosidases, which might affect the binding interaction with inhibitors.[36] Nevertheless, additional research is required to explore which specific metal ion is present in the MAN2C1 active site in its in vivo state.
Trans-Cyclosulfamidate Cyclitols Males et al.
2.3 GH38 α-mannosidases and GH2 β-mannosidase inhibition studies
All chemicals were of analytical grade and purchased from Sigma-Aldrich unless stated otherwise.
Optimal stability of cell homogenates and enzyme working stocks was ensured by preparation and temporary storage on ice. Cell homogenates were prepared and used on the same day. Protein concentrations were quantified using the Pierce BCA Protein Assay Kit (ThermoFisher). Protein samples were measured in clear flat-bottom polystyrene 96 well microplates (Greiner Bio-One) using a EMax Plus Microplate Reader (Molecular Devices). Activity measurements of human GH38 α-mannosidases and bacterial β-mannosidase BtMan2A were performed in black flat-bottom polystyrene 96 wells microplates (Greiner Bio-One) and total fluorescence was measured using a Perkin Elmer LS-55 fluorescence spectrometer at wavelengths λex = 366 and λem = 445 nm, with the signal optimized for medium gain readings. The fluorescence values of each enzyme sample were corrected for the background signal of a blank sample containing no enzyme. In the case of IC50 determinations, values were normalized against a control sample containing enzyme without added inhibitor. For a single experiment, three separate curves were fitted from a technical triplicate by setting the inhibitor concentration in µM against the normalized response using GraphPad Prism 8.4.2 software. The Prism functions ‘[inhibitor] versus normalized response’ and ‘[inhibitor] versus normalized response -- variable slope’ were compared for each curve using the Akaike’s Information Criterion method to select the preferred model. Reported IC50 values are mean ± standard deviation from a biological […]
General cell culture protocol
HEK293T cells were grown to confluency at 37 °C under a 5% CO2 atmosphere in Dulbecco’s Modified Eagle’s Medium (DMEM) with a high glucose concentration (Capricorn Scientific, DMEM-HPXA) that was supplemented with 10% fetal calf serum, 0.1% (w/v) penicillin/streptomycin and 1% (v/v) Glutamax. Cells were passaged twice a week to new round polystyrene (PS) tissue culture dishes (Sarstedt) by detachment off the former culture plates by careful pipetting. To prepare cell pellets for activity measurements, plates were grown to confluency and harvested in phosphate buffered saline (PBS). After centrifugation at 1500 rpm for 5 min, the remaining PBS was aspirated and the cells were resuspended in fresh PBS. The concentration of the resulting suspension was then counted using a TC20 automated cell counter (BioRad). Aliquots were centrifuged at 2000 rpm for 5 min and the resulting cell pellets were stored at -80 °C until further use.
4-MU activity assay protocol for human GH38 α-mannosidases
HEK293T cells stably overexpressing human GH38 α-mannosidases MAN2A1, MAN2A2, MAN2B1, MAN2B2 and MAN2C1 were prepared as previously described[11] and were kindly donated by Dr. C. L.
Kuo. Homogenates were prepared by sonicating cell pellets (Sonics VibraCell, 5x1 s with 30 s interval at 20% amplitude) in 150 mM McIlvain buffer of pH 5.5 (MAN2A1, MAN2A2), pH 4.5 (MAN2B1, MAN2B2) or pH 6.7 (MAN2C1) containing either 2 mM ZnCl2 (MAN2A1, MAN2A2, MAN2B1, MAN2B2) […]

For `O=S1(=O)N[C@@H]2[C@@H](O)[C@@H](O)[C@H](O)[C@@H](CO)[C@H]2O1` [compound 6, 1,6-trans-manno-cyclosulfamidate], the IC50 by setting is: (Co2+ (cobalt as the metal ion), read-out: IC50 (apparent)) 3.5 ± 1.2 µM; (Zn2+ (buffer supplemented with 1 mM ZnCl2 instead of CoCl2)) “no IC50 value could be determined”; (Zn2+ (buffer supplemented with 1 mM ZnCl2 instead of CoCl2), read-out: IC50) above 1000 µM.
